Source: patent US20050222178A1, “Process” (priority 2002, published 2005)

Test: relative stability of the polymorphic forms of Compound A
Assay type: physicochemical

stability relative to the other polymorph (at ambient temperatures, for example 15-20° C.) | stability relative to the other polymorph (at elevated temperatures, for example temperatures in excess of 70° C.) | SMILES
enhanced stability over Polymorph II | – | CC(C)(C)c1nnc([C@H]2O[C@@H](n3cnc4c(Nc5ccc(Cl)cc5F)ncnc43)[C@H](O)[C@@H]2O)o1 [Polymorph I, (2S,3S,4R,5R)-2-(5-tert-butyl-[1,3,4]-oxadiazol-2-yl)-5-[6-(4-chloro-2-fluorophenylamino)-9H-purin-9-yl]-tetrahydrofuran-3,4-diol]
– | enhanced stability over Polymorph I | CC(C)(C)c1nnc([C@H]2O[C@@H](n3cnc4c(Nc5ccc(Cl)cc5F)ncnc43)[C@H](O)[C@@H]2O)o1 [Polymorph II, (2S,3S,4R,5R)-2-(5-tert-butyl-[1,3,4]-oxadiazol-2-yl)-5-[6-(4-chloro-2-fluorophenylamino)-9H-purin-9-yl]-tetrahydrofuran-3,4-diol]
